Measurements as given in patent publication US20230085307A1, “PYRIDAZINONE COMPOUND AND HERBICIDE” (NISSAN CHEMICAL CORPORATION, priority 2019, published 2023).

Tests used:
[1] = tested on: lambsquarters; assay: Test Example 4: herbicidal effect by soil treatment (Table 19, symbol O); type: in vivo, lambsquarters (Chenopodium album)
Method in brief: (§1)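 Applied as a water-diluted emulsion, the compound was sprayed onto soil covering newly sown seeds. Evaluation came three weeks after application, in a greenhouse held at 25° C. to 30° C.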

[2] = tested on: wild oat; assay: Test Example 5: herbicidal effect by foliage application, plastic box (Table 20, symbol I); type: in vivo, wild oat (Avena fatua); details: foliage application, evaluated three weeks after application
Method in brief: (§2)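 Sow seeds spot-wise in sterilized diluvial soil; cover with ~1.5 cm soil. Grow 14 days in greenhouse, 25° C. to 30° C. Spray foliage with emulsion diluted to predetermined amount. Rate effect after 3 weeks.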

[3] = tested on: lambsquarters; assay: Test Example 5: herbicidal effect by foliage application, plastic box (Table 20, symbol O); type: in vivo, lambsquarters (Chenopodium album); details: foliage application, evaluated three weeks after application
Method in brief: as §2

[4] = tested on: Italian ryegrass; assay: Test Example 4: herbicidal effect by soil treatment (Table 19, symbol K); type: in vivo, Italian ryegrass (Lolium multiflorum)
Method in brief: as §1

[5] = tested on: velvetleaf; assay: Test Example 4: herbicidal effect by soil treatment (Table 19, symbol M); type: in vivo, velvetleaf (Abutilon theophrasti)
Method in brief: as §1

[6] = tested on: velvetleaf; assay: Test Example 5: herbicidal effect by foliage application, plastic box (Table 20, symbol M); type: in vivo, velvetleaf (Abutilon theophrasti); details: foliage application, evaluated three weeks after application
Method in brief: as §2

[7] = tested on: chickweed; assay: Test Example 5: herbicidal effect by foliage application, plastic box (Table 20, symbol P); type: in vivo, common chickweed (Stellaria media); details: foliage application, evaluated three weeks after application
Method in brief: as §2

[8] = tested on: redroot pigweed; assay: Test Example 4: herbicidal effect by soil treatment (Table 19, symbol N); type: in vivo, redroot pigweed (Amaranthus retroflexus)
Method in brief: as §1

[9] = tested on: redroot pigweed; assay: Test Example 5: herbicidal effect by foliage application, plastic box (Table 20, symbol N); type: in vivo, redroot pigweed (Amaranthus retroflexus); details: foliage application, evaluated three weeks after application
Method in brief: as §2

[10] = tested on: barnyard grass; assay: Test Example 3: herbicidal effect by foliage application, Wagner pot (Table 18, symbol H); type: in vivo, barnyard grass (Echinochloa crus-galli); details: 96 g/ha
Method in brief: (§3)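 Plants were sown in alluvial soil held under 0.1–0.5 cm standing water and grown 14 days in a greenhouse at 25–30 °C. An emulsifiable formulation, water-diluted to the set dose, was then sprayed onto the foliage, and effects were scored three weeks later using previously defined criteria.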

[11] = tested on: persian speedwell; assay: Test Example 4: herbicidal effect by soil treatment (Table 19, symbol R); type: in vivo, Persian speedwell (Veronica persica)
Method in brief: as §1

[12] = tested on: Chinese sprangletop; assay: Test Example 3: herbicidal effect by foliage application, Wagner pot (Table 18, symbol D); type: in vivo, chinese sprangletop (Leptochloa chinensis); details: 96 g/ha
Method in brief: as §3

[13] = tested on: southern crabgrass; assay: Test Example 5: herbicidal effect by foliage application, plastic box (Table 20, symbol F); type: in vivo, southern crabgrass (Digitaria ciliaris); details: foliage application, evaluated three weeks after application
Method in brief: as §2

[14] = tested on: Italian ryegrass; assay: Test Example 5: herbicidal effect by foliage application, plastic box (Table 20, symbol K); type: in vivo, Italian ryegrass (Lolium multiflorum); details: foliage application, evaluated three weeks after application
Method in brief: as §2

[15] = tested on: green foxtail; assay: Test Example 5: herbicidal effect by foliage application, plastic box (Table 20, symbol G); type: in vivo, green foxtail (Setaria viridis); details: foliage application, evaluated three weeks after application
Method in brief: as §2

[16] = tested on: chickweed; assay: Test Example 4: herbicidal effect by soil treatment (Table 19, symbol P); type: in vivo, common chickweed (Stellaria media)
Method in brief: as §1

[17] = tested on: blackgrass; assay: Test Example 4: herbicidal effect by soil treatment (Table 19, symbol J); type: in vivo, blackgrass (Alopecurus myosuroides)
Method in brief: as §1

[18] = tested on: persian speedwell; assay: Test Example 5: herbicidal effect by foliage application, plastic box (Table 20, symbol R); type: in vivo, Persian speedwell (Veronica persica); details: foliage application, evaluated three weeks after application
Method in brief: as §2

[19] = tested on: wild oat; assay: Test Example 4: herbicidal effect by soil treatment (Table 19, symbol I); type: in vivo, wild oat (Avena fatua)
Method in brief: as §1

[20] = tested on: green foxtail; assay: Test Example 4: herbicidal effect by soil treatment (Table 19, symbol G); type: in vivo, green foxtail (Setaria viridis)
Method in brief: as §1

[21] = tested on: windgrass; assay: Test Example 5: herbicidal effect by foliage application, plastic box (Table 20, symbol L); type: in vivo, windgrass (Apera spica-venti); details: foliage application, evaluated three weeks after application
Method in brief: as §2

[22] = tested on: windgrass; assay: Test Example 4: herbicidal effect by soil treatment (Table 19, symbol L); type: in vivo, windgrass (Apera spica-venti)
Method in brief: as §1

[23] = tested on: barnyard grass; assay: Test Example 5: herbicidal effect by foliage application, plastic box (Table 20, symbol H); type: in vivo, barnyard grass (Echinochloa crus-galli); details: foliage application, evaluated three weeks after application
Method in brief: as §2

[24] = tested on: blackgrass; assay: Test Example 5: herbicidal effect by foliage application, plastic box (Table 20, symbol J); type: in vivo, blackgrass (Alopecurus myosuroides); details: foliage application, evaluated three weeks after application
Method in brief: as §2

[25] = tested on: barnyard grass; assay: Test Example 4: herbicidal effect by soil treatment (Table 19, symbol H); type: in vivo, barnyard grass (Echinochloa crus-galli)
Method in brief: as §1

[26] = tested on: southern crabgrass; assay: Test Example 4: herbicidal effect by soil treatment (Table 19, symbol F); type: in vivo, southern crabgrass (Digitaria ciliaris)
Method in brief: as §1

[27] = amount of applied herbicide 320 g/ha

Structure (SMILES): Cc1nn(C)c(=O)c(-c2c(-c3ccccc3)sc3ccc(Cl)cc23)c1O [2-094]
- herbicidal effect rating, O: lambsquarters ([1]; 96 g/ha): 3 (Herbicidal rate of 40% or more and less than 70%)
- herbicidal effect on I: wild oat ([2]; 96 g/ha): 0 (Herbicidal rate of 5% or less (almost no effect))
- herbicidal effect on O: lambsquarters ([3]; 96 g/ha): 2 (Herbicidal rate of 20% or more and less than 40%)
- herbicidal effect rating, K: Italian ryegrass ([4]; 96 g/ha): 0 (Herbicidal rate of 5% or less (almost no effect))
- herbicidal effect rating, M: velvetleaf ([5]; 96 g/ha): 0 (Herbicidal rate of 5% or less (almost no effect))
- herbicidal effect on M: velvetleaf ([6]; 96 g/ha): 3 (Herbicidal rate of 40% or more and less than 70%)
- herbicidal effect on P: chickweed ([7]; 96 g/ha): 5 (Herbicidal rate of 90% or more (almost completely withered))
- herbicidal effect rating, N: redroot pigweed ([8]; 96 g/ha): 5 (Herbicidal rate of 90% or more (almost completely withered))
- herbicidal effect on N: redroot pigweed ([9]; 96 g/ha): 3 (Herbicidal rate of 40% or more and less than 70%)
- herbicidal effect on H (barnyard grass), rating 0-5 [10]: 2 (Herbicidal rate of 20% or more and less than 40%)
- herbicidal effect rating, R: persian speedwell ([11]; 96 g/ha): 0 (Herbicidal rate of 5% or less (almost no effect))
- herbicidal effect on D (Chinese sprangletop), rating 0-5 [12]: 0 (Herbicidal rate of 5% or less (almost no effect))
- herbicidal effect on F: southern crabgrass ([13]; 96 g/ha): 0 (Herbicidal rate of 5% or less (almost no effect))
- herbicidal effect on K: Italian ryegrass ([14]; 96 g/ha): 2 (Herbicidal rate of 20% or more and less than 40%)
- herbicidal effect on G: green foxtail ([15]; 96 g/ha): 0 (Herbicidal rate of 5% or less (almost no effect))
- herbicidal effect rating, P: chickweed ([16]; 96 g/ha): 0 (Herbicidal rate of 5% or less (almost no effect))
- herbicidal effect rating, J: blackgrass ([17]; 96 g/ha): 0 (Herbicidal rate of 5% or less (almost no effect))
- herbicidal effect on R: persian speedwell ([18]; 96 g/ha): 1 (Herbicidal rate of 5% or more and less than 20%)
- herbicidal effect rating, I: wild oat ([19]; 96 g/ha): 0 (Herbicidal rate of 5% or less (almost no effect))
- herbicidal effect rating, G: green foxtail ([20]; 96 g/ha): 0 (Herbicidal rate of 5% or less (almost no effect))
- herbicidal effect on L: windgrass ([21]; 96 g/ha): 0 (Herbicidal rate of 5% or less (almost no effect))
- herbicidal effect rating, L: windgrass ([22]; 96 g/ha): 0 (Herbicidal rate of 5% or less (almost no effect))
- herbicidal effect on H: barnyard grass ([23]; 96 g/ha): 0 (Herbicidal rate of 5% or less (almost no effect))
- herbicidal effect on J: blackgrass ([24]; 96 g/ha): 0 (Herbicidal rate of 5% or less (almost no effect))
- herbicidal effect rating, H: barnyard grass ([25]; 96 g/ha): 0 (Herbicidal rate of 5% or less (almost no effect))
- herbicidal effect rating, F: southern crabgrass ([26]; 96 g/ha): 0 (Herbicidal rate of 5% or less (almost no effect))

Structure (SMILES): CCCC(=O)Oc1c(C)nn(C)c(=O)c1-c1c(-c2ccc(OC)cc2)sc2ccc(C)cc12 [2-141]
- O: lambsquarters, herbicidal effect rating [1, 27]: 0 (Herbicidal rate of 5% or less (almost no effect))
- herbicidal effect on I: wild oat (criteria 0-5) ([2]; 320 g/ha): 0 (Herbicidal rate of 5% or less (almost no effect))
- herbicidal effect on O: lambsquarters (criteria 0-5) ([3]; 320 g/ha): 0 (Herbicidal rate of 5% or less (almost no effect))
- K: Italian ryegrass, herbicidal effect rating [4, 27]: 0 (Herbicidal rate of 5% or less (almost no effect))
- M: velvetleaf, herbicidal effect rating [5, 27]: 0 (Herbicidal rate of 5% or less (almost no effect))
- herbicidal effect on M: velvetleaf (criteria 0-5) ([6]; 320 g/ha): 0 (Herbicidal rate of 5% or less (almost no effect))
- herbicidal effect on P: chickweed (criteria 0-5) ([7]; 320 g/ha): 5 (Herbicidal rate of 90% or more (almost completely withered))
- N: redroot pigweed, herbicidal effect rating [8, 27]: 0 (Herbicidal rate of 5% or less (almost no effect))
- herbicidal effect on N: redroot pigweed (criteria 0-5) ([9]; 320 g/ha): 0 (Herbicidal rate of 5% or less (almost no effect))
- R: persian speedwell, herbicidal effect rating [11, 27]: 2 (Herbicidal rate of 20% or more and less than 40%)
- herbicidal effect on F: southern crabgrass (criteria 0-5) ([13]; 320 g/ha): 0 (Herbicidal rate of 5% or less (almost no effect))
- herbicidal effect on K: Italian ryegrass (criteria 0-5) ([14]; 320 g/ha): 0 (Herbicidal rate of 5% or less (almost no effect))
- herbicidal effect on G: green foxtail (criteria 0-5) ([15]; 320 g/ha): 0 (Herbicidal rate of 5% or less (almost no effect))
- P: chickweed, herbicidal effect rating [16, 27]: 0 (Herbicidal rate of 5% or less (almost no effect))
- J: blackgrass, herbicidal effect rating [17, 27]: 0 (Herbicidal rate of 5% or less (almost no effect))
- herbicidal effect on R: persian speedwell (criteria 0-5) ([18]; 320 g/ha): 5 (Herbicidal rate of 90% or more (almost completely withered))
- I: wild oat, herbicidal effect rating [19, 27]: 0 (Herbicidal rate of 5% or less (almost no effect))
- G: green foxtail, herbicidal effect rating [20, 27]: 0 (Herbicidal rate of 5% or less (almost no effect))
- herbicidal effect on L: windgrass (criteria 0-5) ([21]; 320 g/ha): 0 (Herbicidal rate of 5% or less (almost no effect))
- L: windgrass, herbicidal effect rating [22, 27]: 0 (Herbicidal rate of 5% or less (almost no effect))
- herbicidal effect on H: barnyard grass (criteria 0-5) ([23]; 320 g/ha): 0 (Herbicidal rate of 5% or less (almost no effect))
- herbicidal effect on J: blackgrass (criteria 0-5) ([24]; 320 g/ha): 0 (Herbicidal rate of 5% or less (almost no effect))
- H: barnyard grass, herbicidal effect rating [25, 27]: 0 (Herbicidal rate of 5% or less (almost no effect))
- F: southern crabgrass, herbicidal effect rating [26, 27]: 0 (Herbicidal rate of 5% or less (almost no effect))
